# Measurements reported in US20200392158A1, “INHIBITORS OF LEUCINE RICH REPEAT KINASE 2” (GLAXOSMITHKLINE INTELLECTUAL PROPERTY DEVELOPMENT LIMITED, priority 2017, published 2020).
# Target: T1, full length G2019 human LRRK2 (Homo sapiens, UniProt Q5S007, R50H)
# T1 construct: made in house; host or cells: HEK293 6E cells transduced with BacMam virus (virus generated in Sf9 cells)
# Assay: Full length G2019 human LRRK2 inhibition mass spectrometry assay
# Format: biochemical
# Conditions: LRRKtide to phospho-LRRKtide conversion, RapidFire MS, 2 mM ATP
# Description: a. Full Length G2019 Human LRRK2 Inhibition Mass Spectrometry Assay
# This assay for Leucine Rich Repeat Kinase 2 (LRRK2) inhibition is based on the direct measurement of the peptide ‘LRRKtide’ (LRRKtide: RLGRDKYKT*LRQIRQ and “*” refers to the site of phosphorylation.) and phosphorylated ‘LRRKtide’ using a high throughput Rapid Fire mass spectrometry assay. Inhibitors are compounds that reduce the conversion of LRRKtide to phospho-LRRKtide.
# • 1) Compounds were dissolved in 100% DMSO at a concentration of 10 mM, and 11-point dose response curves generated using a 1 in 4 serial dilution in DMSO. 100 nL of this dilution series was then added to a 384 well, v bottom polypropylene plate (Greiner 781280), excluding columns 6 and 18. 100 nL of DMSO were added to column 6 to serve as the high control, while column 18 served as the low control containing assay buffer in place of the LRRK2 protein. Assay dilution gave a top final assay concentration of test compound of […] • 2) 5 μL of ‘enzyme solution’ containing 2× final assay concentration of purified recombinant Full length Flag-LRRK2 in assay buffer (50 mM Hepes, pH 7.2, 10 mM MgCl2, 150 mM NaCl, 5% glycerol, 0.0025% Triton X-100 and 1 mM DTT) were added to all wells using a Multidrop Combi dispenser (ThermoFisher Scientifiec), giving a final assay concentration of 25 nM LRRK2 enzyme (final concentration may vary depending on specific activity of different enzyme batches). • 3) 5 μL of substrate solution containing 50 μM LRRKtide peptide substrate and […] was added to all wells of the plate using a Multidrop Combi dispenser giving a final assay concentration of 25 μM LRRKtide peptide and 2 mM ATP. Test plates were then incubated for 1 hour at room temperature. (Incubation may vary depending on rate and linearity of reaction with different enzyme batches). • 4) 50 μl of 1% formic acid in laboratory grade water was added to all wells to quench the reaction, and plates were heat-sealed prior to centrifugation at 1348×g for 10 minutes. Test plates were then analysed on an Agilent RapidFire High Throughput solid phase extraction system coupled to AB Sciex API 4000 triple quadropole mass spectrometer with the following setting:
# • Sip Height=2 mm, Aspirate=500 ms, Load time=3000 ms, Elution time=3000 ms, Requilibration=500 ms. • Flow rates: pump 1=1.5 mL/min, pump 2 1.25 mL/min pump 3=0.8 mL/min
# Mass Spectrometer Settings: • LRRKtide Detection settings: Q1 mass 644.8 Da, Q3 mass 638.8, declustering potential 76 volts, collision energy 37 volts, CXP 34 volts. • Phospho-LRRKtide Detection settings: Q1 mass 671.4 Da, Q3 mass 638.8, Declustering potential 76 volts, Collision energy 37 volts, CXP 34 volts. • A C4 cartridge was used and running buffers were: A (aqueous) 0.1% formic acid in water B (organic) 0.1% formic acid, 80% acetonitrile, 20% water. • Collision gas: 12, Curtain gas: 25, Ion Source gas (1): 60, Ion Source gas (2): 60, Ion Spray Voltage: 5500, Temperature: 600, Interface Heater: ON. • Resolution Q1: low, Resolution Q3: low. • 5) Data were analysed using ActivityBase software (IDBS). A percent conversion from LRRKtide to Phospho-LRRKtide was calculated using the following formula:
# % conversion=(Phospho-LRRKtide product peak area/(Phospho-LRRKtide product peak area+LRRKtide substrate peak area))*100 • A logistic 4 parameter curve fit was applied, using the following formula,
# [formula] • Where x is the concentration of test sample, y is inhibition (%), a is the minimum, b is the Hill slope, c is the IC50 and d is the maximum. From this, the pIC50 was derived (−log IC50).
# T1 sequence (Q5S007 with tags, fused parts or gaps R50H): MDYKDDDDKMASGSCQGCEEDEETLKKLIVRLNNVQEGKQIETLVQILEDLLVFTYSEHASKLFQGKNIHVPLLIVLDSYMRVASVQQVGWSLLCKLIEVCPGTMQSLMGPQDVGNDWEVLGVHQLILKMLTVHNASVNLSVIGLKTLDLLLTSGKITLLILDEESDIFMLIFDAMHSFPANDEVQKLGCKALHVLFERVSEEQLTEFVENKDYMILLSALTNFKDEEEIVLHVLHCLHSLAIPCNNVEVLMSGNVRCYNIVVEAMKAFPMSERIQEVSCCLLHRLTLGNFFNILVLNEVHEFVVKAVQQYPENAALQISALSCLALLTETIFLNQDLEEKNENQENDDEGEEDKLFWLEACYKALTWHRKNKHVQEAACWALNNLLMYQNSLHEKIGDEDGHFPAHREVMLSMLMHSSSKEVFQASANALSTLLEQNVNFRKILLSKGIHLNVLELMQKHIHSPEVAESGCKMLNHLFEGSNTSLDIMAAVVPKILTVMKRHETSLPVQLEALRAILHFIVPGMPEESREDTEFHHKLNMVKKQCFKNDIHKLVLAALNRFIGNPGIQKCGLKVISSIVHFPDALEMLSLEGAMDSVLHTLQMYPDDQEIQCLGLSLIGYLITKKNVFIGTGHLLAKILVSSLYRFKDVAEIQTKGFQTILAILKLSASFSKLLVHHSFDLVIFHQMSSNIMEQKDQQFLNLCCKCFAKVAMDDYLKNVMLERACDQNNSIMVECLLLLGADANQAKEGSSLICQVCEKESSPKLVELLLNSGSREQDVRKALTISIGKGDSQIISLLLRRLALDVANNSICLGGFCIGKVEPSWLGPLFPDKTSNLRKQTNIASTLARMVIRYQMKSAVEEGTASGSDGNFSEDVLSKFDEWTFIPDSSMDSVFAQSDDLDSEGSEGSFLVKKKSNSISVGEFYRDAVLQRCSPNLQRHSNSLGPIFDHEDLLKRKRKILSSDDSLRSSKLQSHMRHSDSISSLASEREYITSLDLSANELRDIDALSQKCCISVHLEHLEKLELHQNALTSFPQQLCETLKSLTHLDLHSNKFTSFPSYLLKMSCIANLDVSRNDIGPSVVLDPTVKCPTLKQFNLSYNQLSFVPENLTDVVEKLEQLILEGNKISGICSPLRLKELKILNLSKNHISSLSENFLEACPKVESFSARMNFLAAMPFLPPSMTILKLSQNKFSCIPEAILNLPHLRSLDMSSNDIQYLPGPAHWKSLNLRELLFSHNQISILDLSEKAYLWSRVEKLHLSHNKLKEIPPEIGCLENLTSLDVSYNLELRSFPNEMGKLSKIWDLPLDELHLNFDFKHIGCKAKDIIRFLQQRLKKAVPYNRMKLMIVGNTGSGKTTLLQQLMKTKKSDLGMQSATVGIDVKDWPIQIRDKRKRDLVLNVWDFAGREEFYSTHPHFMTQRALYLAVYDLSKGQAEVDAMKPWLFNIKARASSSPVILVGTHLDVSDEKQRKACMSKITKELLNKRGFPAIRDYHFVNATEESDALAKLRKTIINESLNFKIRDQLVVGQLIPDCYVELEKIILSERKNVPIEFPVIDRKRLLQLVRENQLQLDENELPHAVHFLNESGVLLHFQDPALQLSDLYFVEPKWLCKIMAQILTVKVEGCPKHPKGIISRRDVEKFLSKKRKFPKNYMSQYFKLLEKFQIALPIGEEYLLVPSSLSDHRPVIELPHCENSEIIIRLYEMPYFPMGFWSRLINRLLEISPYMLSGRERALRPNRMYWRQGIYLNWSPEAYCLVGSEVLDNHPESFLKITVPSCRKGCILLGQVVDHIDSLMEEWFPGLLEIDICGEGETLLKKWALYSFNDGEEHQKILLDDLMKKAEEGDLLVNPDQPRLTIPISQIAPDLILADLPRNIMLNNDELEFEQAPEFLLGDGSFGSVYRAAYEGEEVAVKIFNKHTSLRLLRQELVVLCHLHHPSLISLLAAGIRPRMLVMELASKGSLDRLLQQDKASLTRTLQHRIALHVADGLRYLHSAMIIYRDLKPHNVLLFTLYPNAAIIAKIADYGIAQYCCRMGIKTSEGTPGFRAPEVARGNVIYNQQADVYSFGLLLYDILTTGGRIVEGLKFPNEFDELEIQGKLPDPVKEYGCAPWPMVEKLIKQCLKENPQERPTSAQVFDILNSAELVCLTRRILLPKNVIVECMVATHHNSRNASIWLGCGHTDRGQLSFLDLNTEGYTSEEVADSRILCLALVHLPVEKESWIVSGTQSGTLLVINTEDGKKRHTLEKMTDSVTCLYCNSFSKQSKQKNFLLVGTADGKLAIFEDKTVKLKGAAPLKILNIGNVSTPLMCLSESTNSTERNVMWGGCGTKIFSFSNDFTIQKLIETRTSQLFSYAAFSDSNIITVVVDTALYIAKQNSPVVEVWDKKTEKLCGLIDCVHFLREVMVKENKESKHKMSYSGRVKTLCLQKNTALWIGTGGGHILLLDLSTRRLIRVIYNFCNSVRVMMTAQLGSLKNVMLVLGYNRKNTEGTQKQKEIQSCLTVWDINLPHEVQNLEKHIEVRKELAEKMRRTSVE
row,Compound,IC50
1,"Cc1c2c(nn1C1CC(C)OC(C)C1)OCCC(C)Nc1nc(ncc1Cl)N2 (single isomer, unassigned) [E197, 14-Chloro-5-(2,6-dimethyloxan-4-yl)-4,11-dimethyl-8-oxa-2,5,6,12,16,17-hexaazatricyclo[11.3.1.0^3,7] heptadeca-1(16),3,6,13(17),14-pentaene]",≤ 10 µM
2,"COC1CCCC(n2nc3c(c2C)Nc2ncc(Cl)c(n2)NCCCO3)C1 (single isomer, unassigned) [E181, 14-Chloro-5-(3-methoxycyclohexyl)-4-methyl-8-oxa-2,5,6,12,16,17-hexaazatricyclo[11.3.1.0^3,7]heptadeca-1(16),3,6,13(17),14-pentaene]",100 µM
3,"Cc1c2c(nn1C1CCC(N3C[C@H]4C[C@@H]3CO4)CC1)OCCCNc1nc(ncc1Cl)N2 (single isomer, unassigned) [E49]",≤ 0.1 µM
4,"Cc1c2c(nn1C1CCC(N3CCC(F)C3)CC1)OCCCNc1nc(ncc1Cl)N2 (single isomer, unassigned) [E154, 14-Chloro-5-[4-(3-fluoropyrrolidin-1-yl)cyclohexyl]-4-methyl-8-oxa-2,5,6,12,16,17-hexaazatricyclo[11.3.1. 0^3,7]heptadeca-1(16),3,6,13(17),14-pentaene]",≤ 0.1 µM
5,"Cc1c2c(nn1C1CCC(N3C[C@@H]4C[C@H]3CO4)CC1)OCCCNc1nc(ncc1Cl)N2 (single isomer, unassigned) [E51]",≤ 0.1 µM
6,"Cc1c2c(nn1C1CCOCC1)OCCC(C(F)(F)F)Nc1nc(ncc1Cl)N2 (single isomer, unassigned) [E193, 14-Chloro-4-methyl-5-(oxan-4-yl)-11-(trifluoromethyl)-8-oxa-2,5,6,12,16,17-hexaazatricyclo[11.3.1.0^3,7] heptadeca-1(16),3,6,13(17),14-pentaene]",≤ 10 µM
7,"Clc1cnc2nc1NCCCOc1nn(C3CCOCC3)c(C3CC3)c1N2 [E147, 14-Chloro-4-cyclopropyl-5-(oxan-4-yl)-8-oxa-2,5,6,12,16,17-hexaazatricyclo[11.3.1.0^3,7]heptadeca-1(16),3,6,13(17),14-pentaene]",≤ 10 µM
8,"Cc1c2c(nn1C(C)C1CCOCC1)OCCCNc1nc(ncc1Cl)N2 (single isomer, unassigned) [E187, 14-Chloro-4-methyl-5-[1-(oxan-4-yl)ethyl]-8-oxa-2,5,6,12,16,17-hexaazatricyclo[11.3.1.0^3,7]heptadeca-1(16), 3,6,13(17),14-pentaene]",≤ 0.1 µM
9,"Cc1c2c(nn1C1CCCOC1)OCCCNc1nc(ncc1Cl)N2 (single isomer, unassigned) [E11, 14-Chloro-4-methyl-5-(oxan-3-yl)-8-oxa-2,5,6,12,16,17-hexaaza tricyclo-[11.3.1.0^3,7]heptadeca-1(16),3,6,13(17),14-pentaene]",≤ 0.1 µM
10,"CCC1CCOc2nn(C3CCOCC3)c(C)c2Nc2ncc(Cl)c(n2)N1 (single isomer, unassigned) [E19, 14-chloro-11-ethyl-4-methyl-5-(oxan-4-yl)-8-oxa-2,5,6,12,16,17-hexaazatricyclo[11.3.1.0^3,7]heptadeca-1(16),3,6,13(17),14-pentaene]",≤ 10 µM
11,"Cc1c2c(nn1C1CCC(N3C[C@H]4C[C@@H]3CO4)CC1)OCCC(C)Nc1nc(ncc1Cl)N2 (single isomer, unassigned) [E56]",≤ 10 µM

# Now from value to molecule:
row,IC50,Compound
1,≤ 0.1 µM,"Cc1c2c(nn1C1CC(N3CCC(F)(F)C3)C1)OCCC(C)Nc1nc(ncc1Cl)N2 (single isomer, unassigned) [E316, 14-Chloro-5-[3-(3,3-difluoropyrrolidin-1-yl)cyclobutyl]-4,11-dimethyl-8-oxa-2,5,6,12,16,17-hexaazatricyclo [11.3.1.0^3,7]-heptadeca-1(16),3,6,13(17),14-pentaene]"
2,≤ 0.1 µM,"COC1CNc2nc(ncc2Cl)Nc2c(nn(CC3(C)COC3)c2C)OC1 (single isomer, unassigned) [E272, 14-Chloro-10-methoxy-4-methyl-5-[(3-methyloxetan-3-yl)methyl]-8-oxa-2,5,6,12,16,17-hexaazatricyclo [11.3.1.0^3,7]heptadeca-1(16),3,6,13(17),14-pentaene]"
3,≤ 0.1 µM,"Cc1c2c(nn1C1CCCOC1)OCC(C)CNc1nc(ncc1Cl)N2 (single isomer, unassigned) [E309, 14-Chloro-4,10-dimethyl-5-(oxan-3-yl)-8-oxa-2,5,6,12,16,17-hexaazatricyclo[11.3.1.0^3,7]heptadeca-1(16),3,6, 13(17),14-pentaene]"
4,≤ 10 µM,"CCOC1CNc2nc(ncc2Cl)Nc2c(nn(C3CCOCC3)c2C)OC1 (single isomer, unassigned) [E286, 14-Chloro-10-ethoxy-4-methyl-5-(oxan-4-yl)-8-oxa-2,5,6,12,16,17-hexaazatricyclo[11.3.1.0^3,7]heptadeca-1(16),3,6,13(17),14-pentaene]"
5,≤ 0.1 µM,"CCC1CCOc2nn(C3COC3)c(C)c2Nc2ncc(Cl)c(n2)N1 (single isomer, unassigned) [E320, 14-Chloro-11-ethyl-4-methyl-5-(oxetan-3-yl)-8-oxa-2,5,6,12,16,17-hexaazatricyclo[11.3.1.0^3,7]heptadeca-1(16), 3,6,13(17),14-pentaene]"
6,≤ 10 µM,"Cc1c2c(nn1C1CC(N3CCC(F)(F)C3)C1)OCCC(C)Nc1nc(ncc1Cl)N2 (single isomer, unassigned) [E315, 14-Chloro-5-[3-(3,3-difluoropyrrolidin-1-yl)cyclobutyl]-4,11-dimethyl-8-oxa-2,5,6,12,16,17-hexaazatricyclo [11.3.1.0^3,7]-heptadeca-1(16),3,6,13(17),14-pentaene]"
7,≤ 10 µM,"Cc1c2c(nn1C1CCC(N3CCOCC3)C1)OCCCNc1nc(ncc1Cl)N2 (single isomer, unassigned) [E370, 14-Chloro-4-methyl-5-[3-(morpholin-4-yl)cyclopentyl]-8-oxa-2,5,6,12,16,17-hexaazatricyclo[11.3.1.0^3,7] heptadeca-1(16),3,6,13(17),14-pentaene]"
8,≤ 10 µM,"Cc1cnc2nc1N[C@H](C)CCOc1nn(C3CCOCC3)c(C)c1N2 [E296, (11R)-14-Methyl-4,11-dimethyl-5-(oxan-4-yl)-8-oxa-2,5,6,12,16,17-hexaazatricyclo[11.3.1.0^3,7]heptadeca-1(16),3,6,13(17),14-pentaene]"
9,≤ 10 µM,"Cc1c2c(nn1C1CCC(C(F)(F)F)CC1)OCCC(C)Nc1nc(ncc1Cl)N2 (single isomer, unassigned) [E280, 4-Chloro-4,11-dimethyl-5-[4-(trifluoromethyl)cyclohexyl]-8-oxa-2,5,6,12,16,17-hexaazatricyclo[11.3.1.0^3,7] heptadeca-1(16),3,6,13(17),14-pentaene]"
10,≤ 10 µM,"Cc1c2c(nn1C1CCOCC1)OCCC(C)(C)Nc1nc(ncc1Cl)N2 [E299, 14-Chloro-4,11,11-trimethyl-5-(oxan-4-yl)-8-oxa-2,5,6,12,16,17-hexaazatricyclo[11.3.1.0^3,7]heptadeca-1(16),3,6,13(17),14-pentaene]"
11,≤ 0.1 µM,"Cc1c2c(nn1C1CN(C3COC3)CCC1F)OCC[C@@H](C)Nc1nc(ncc1Cl)N2 (single isomer, unassigned) [E404]"
12,≤ 10 µM,"COC1CNc2nc(ncc2Cl)Nc2c(nn(C3CC4CCC(C3)O4)c2C)OC1 (single isomer, unassigned) [E246, 14-Chloro-10-methoxy-4-methyl-5-{8-oxabicyclo[3.2.1]octan-3-yl}-8-oxa-2,5,6,12,16,17-hexaazatricyclo [11.3.1.0^3,7]heptadeca-1(16),3,6,13(17),14-pentaene]"
